# Source: ChEMBL document CHEMBL3045345, “Computer simulation of the in vitro and in vivo anti-inflammatory activities of dihydropyrimidines acid derivatives through the inhibition of cyclooxygenase-2” (Med Chem Res, 2013)
# Active and inactive are the calls of the source. No cut-off for these calls is given here.
# How the values were obtained:
# [1] = system: Rattus norvegicus; test: Anti-inflammatory activity in Rattus norvegicus (rat) assessed as inhibition of carrageenan-induced paw edema at 100 mg/kg, po treated 60 min prior to carrageenan injection measured after 1 to 5 hr; type: functional
# [2] = system: Rattus norvegicus; test: Anti-inflammatory activity in Rattus norvegicus (rat) assessed as inhibition of carrageenan-induced paw edema at 100 mg/kg, po treated 60 min prior to carrageenan injection measured after 1 to 5 hr relative to ibuprofen; type: functional
# [3] = target: T1, Prostaglandin G/H synthase 1 (Ovis aries, UniProt P05979); test: Inhibition of Ovis aries (sheep) COX-1 assessed as decrease in PGF2a production from PGH2 upon reduction with stannous chloride using arachidonic acid as substrate pre-incubated with enzyme for 5 min prior to substrate addition by enzyme immunoassay
# T1 sequence (P05979 whole entry): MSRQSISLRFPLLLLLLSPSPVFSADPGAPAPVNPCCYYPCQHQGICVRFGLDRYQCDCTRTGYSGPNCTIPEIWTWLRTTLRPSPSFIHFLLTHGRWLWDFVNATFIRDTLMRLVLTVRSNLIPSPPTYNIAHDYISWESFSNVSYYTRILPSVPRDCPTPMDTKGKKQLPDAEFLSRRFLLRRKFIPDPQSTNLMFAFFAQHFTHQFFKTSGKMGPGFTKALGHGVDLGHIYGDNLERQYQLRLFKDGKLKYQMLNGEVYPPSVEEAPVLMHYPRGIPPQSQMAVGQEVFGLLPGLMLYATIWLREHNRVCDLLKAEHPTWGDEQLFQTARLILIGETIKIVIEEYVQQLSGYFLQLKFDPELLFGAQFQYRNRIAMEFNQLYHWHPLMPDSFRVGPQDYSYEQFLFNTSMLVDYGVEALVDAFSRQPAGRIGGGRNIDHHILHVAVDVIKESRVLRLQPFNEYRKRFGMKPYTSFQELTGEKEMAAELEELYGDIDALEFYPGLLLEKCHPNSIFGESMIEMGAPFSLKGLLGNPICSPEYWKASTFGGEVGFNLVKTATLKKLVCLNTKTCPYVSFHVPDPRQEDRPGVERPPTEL
Compound,inhibition [1],inhibition in vivo at 100 mg/kg [2],IC50 [3],inhibition in vivo at 100 mg/kg [1]
O=C(O)C1=C(/C=C/c2ccccc2)NC(=S)NC1c1ccccc1 (centres undefined),inactive,,,
CN(C)c1ccc(/C=C/C2=C(C(=O)O)C(c3ccc(N(C)C)cc3)NC(=S)N2)cc1 (centres undefined),inactive,,,
COc1ccc(/C=C/C2=C(C(=O)O)C(c3ccc(OC)cc3)NC(=O)N2)cc1 (centres undefined),,41%,14.7 µM,23%
O=C1NC(/C=C/c2ccccc2)=C(C(=O)O)C(c2ccccc2)N1 (centres undefined),,,,16%
O=C1NC(/C=C/c2ccc([N+](=O)[O-])cc2)=C(C(=O)O)C(c2ccc([N+](=O)[O-])cc2)N1 (centres undefined),inactive,,,
CC(C)Cc1ccc(C(C)C(=O)O)cc1 (centres undefined) [IBUPROFEN],,,,56%
CN(C)c1ccc(/C=C/C2=C(C(=O)O)C(c3ccc(N(C)C)cc3)NC(=O)N2)cc1 (centres undefined),inactive,,,
COc1ccc(/C=C/C2=C(C(=O)O)C(c3ccc(OC)cc3)NC(=S)N2)cc1 (centres undefined),,38%,14.3 µM,38%
O=C1NC(/C=C/c2ccc(O)cc2)=C(C(=O)O)C(c2ccc(O)cc2)N1 (centres undefined),,,,12%
O=C(O)C1=C(/C=C/c2ccc(O)cc2)NC(=S)NC1c1ccc(O)cc1 (centres undefined),inactive,,,
